Assay results from US20070167488A1, “Novel therapeutic use” (Leo Pharma A/S, priority 2003, published 2007).

How the values were obtained:
[1] = tested on: IL-2; assay: IL-2 production by spleen cells of immunized, dosed mice after in vitro restimulation with PLP139-153; assay type: cell-based, mouse; settings: for Level of antigen-specific IL-2 production of spleen cells: example 6, vs vehicle treated group
[2] = tested on: IL-6; assay: IL-6 production by spleen cells of immunized, dosed mice after in vitro restimulation with PLP139-153; assay type: cell-based, mouse; settings: example 6, 50 mg/kg i.p. daily for 10 days, vs vehicle treated group
[3] = tested on: IFN-γ; assay: IFN-γ production by spleen cells of immunized, dosed mice after in vitro restimulation with PLP139-153; assay type: cell-based, mouse; settings: example 6, 50 mg/kg i.p. daily for 10 days, vs vehicle treated group
[4] = tested on: IL-17; assay: IL-17 production by spleen cells of immunized, dosed mice after in vitro restimulation with PLP139-153; assay type: cell-based, mouse; settings: example 6, 50 mg/kg i.p. daily for 10 days, vs vehicle treated group
[5] = molecular target: JAK-2 kinase (Mus musculus, UniProt Q62120); settings: J. J. Bright et al., J. Immunol. 162, 1999; cited from earlier work
[6] = tested on: lymphocyte adhesion to inflamed vessels; settings: G. Constantin et al., J. Immunol. 162, 1999; cited from earlier work
[7] = tested on: EAE induced in SJL/J mice with a peptide from myelin proteolipid protein (PLP139-153); assay: EAE model in SJL/J mice immunized with PLP139-153 peptide; assay type: in vivo, mouse; settings: for Inhibition of EAE compared with the suspension vehicle group (in words): SJL/J mice, PLP139-153, doses as in tables 1 and 3
[8] = tested on: EAE in C57BL/6 mice immunized with a peptide from myelin oligodendrocyte glycoprotein (MOG35-55); assay: Second EAE model: C57BL/6JBom mice immunized with MOG35-55 peptide; assay type: in vivo, mouse
[9] = tested on: gene expression in inflammatory cells in the spleen; assay: Oligonucleotide array of spleen cDNA from treated and control EAE mice; assay type: in vivo, mouse
Method: Control mice were given suspension vehicle as described in example 1. On day 7 after treatment, the mice (both treated and control) were sacrificed and their spleens were excised, submerged into the RNA storage solution RNA-later (Sigma-Aldrich, St. Louis, USA) and stored at −80° C. Total RNA was extracted from the mouse spleens using the TRIZOL extraction procedure according to the manufacturer's protocol followed by DNAse treatment (Invitrogen, Carlsbad, Calif., USA). The RNA quality was visualized by agarose gel electrophoresis. Ten μg total RNA was converted into purified ^33P-labelled cDNA probe according to the Atlas Pure Total RNA labelling protocol (BD Biosciences, Palo Alto, Calif., USA).
Labelled probes (10×10^6 CPM) were denatured at 95° C. for 2 minutes and cooled at 4° C. for 2 minutes prior to hybridization to oligonucleotide arrays comprising about 5.000 mouse genes in duplicate dots (Atlas Plastic Mouse 5K MicroArray, BD Biosciences, Palo Alto, Calif., USA). Arrays were hybridized for 16 h at 60° C. with rotation according to the manufacturer's protocol. After hybridization and appropriate washing steps, the arrays were imaged using phospho imager technology together with a STORM 860 scanner (Molecular Dynamics, Sunnyvale, Calif., USA). Subsequently, the images were analysed using the Atlas Image 2.7 software (BD Biosciences, Palo Alto, Calif., USA).

[10] = Exp. 1, terminated day 21, dexamethasone 0.5 mg/kg from day 0
[11] = Exp. 2, terminated day 21, dexamethasone 1 mg/kg from day 1
[12] = Exp. 3, terminated day 28, dexamethasone 1 mg/kg from day 1
[13] = Table 3, experiment with compound 57 (vehicle AUC 28.6), day 0-21, dexamethasone 1 mg/kg p.o.
[14] = Table 3, experiment with compound 110 (vehicle AUC 42.75), day 0-21, dexamethasone 1 mg/kg p.o.
[15] = MOG35-55, day 0-21, dexamethasone 1 mg/kg p.o.
[16] = Table 3, experiment with vehicle AUC 28.6, day 0-21, 50 mg/kg i.p. daily
[17] = listed as 3-(1H-indol-3-ylmethylene)-1,3-dihydro-indol-2-one
[18] = Exp. 1, terminated day 21, 50 mg/kg i.p. daily
[19] = Exp. 2, terminated day 21, 4 mg/kg i.p. daily
[20] = Exp. 2, terminated day 21, 10 mg/kg i.p. daily
[21] = Exp. 2, terminated day 21, 25 mg/kg i.p. daily
[22] = Exp. 2, terminated day 21, 50 mg/kg i.p. daily
[23] = Exp. 3, terminated day 28, 25 mg/kg i.p. daily
[24] = Exp. 3, terminated day 28, 50 mg/kg i.p. daily
[25] = Exp. 4, terminated day 35, 50 mg/kg i.p. daily
[26] = MOG35-55, day 0-21, 50 mg/kg i.p. daily

Sequence of JAK-2 kinase (Q62120 whole entry): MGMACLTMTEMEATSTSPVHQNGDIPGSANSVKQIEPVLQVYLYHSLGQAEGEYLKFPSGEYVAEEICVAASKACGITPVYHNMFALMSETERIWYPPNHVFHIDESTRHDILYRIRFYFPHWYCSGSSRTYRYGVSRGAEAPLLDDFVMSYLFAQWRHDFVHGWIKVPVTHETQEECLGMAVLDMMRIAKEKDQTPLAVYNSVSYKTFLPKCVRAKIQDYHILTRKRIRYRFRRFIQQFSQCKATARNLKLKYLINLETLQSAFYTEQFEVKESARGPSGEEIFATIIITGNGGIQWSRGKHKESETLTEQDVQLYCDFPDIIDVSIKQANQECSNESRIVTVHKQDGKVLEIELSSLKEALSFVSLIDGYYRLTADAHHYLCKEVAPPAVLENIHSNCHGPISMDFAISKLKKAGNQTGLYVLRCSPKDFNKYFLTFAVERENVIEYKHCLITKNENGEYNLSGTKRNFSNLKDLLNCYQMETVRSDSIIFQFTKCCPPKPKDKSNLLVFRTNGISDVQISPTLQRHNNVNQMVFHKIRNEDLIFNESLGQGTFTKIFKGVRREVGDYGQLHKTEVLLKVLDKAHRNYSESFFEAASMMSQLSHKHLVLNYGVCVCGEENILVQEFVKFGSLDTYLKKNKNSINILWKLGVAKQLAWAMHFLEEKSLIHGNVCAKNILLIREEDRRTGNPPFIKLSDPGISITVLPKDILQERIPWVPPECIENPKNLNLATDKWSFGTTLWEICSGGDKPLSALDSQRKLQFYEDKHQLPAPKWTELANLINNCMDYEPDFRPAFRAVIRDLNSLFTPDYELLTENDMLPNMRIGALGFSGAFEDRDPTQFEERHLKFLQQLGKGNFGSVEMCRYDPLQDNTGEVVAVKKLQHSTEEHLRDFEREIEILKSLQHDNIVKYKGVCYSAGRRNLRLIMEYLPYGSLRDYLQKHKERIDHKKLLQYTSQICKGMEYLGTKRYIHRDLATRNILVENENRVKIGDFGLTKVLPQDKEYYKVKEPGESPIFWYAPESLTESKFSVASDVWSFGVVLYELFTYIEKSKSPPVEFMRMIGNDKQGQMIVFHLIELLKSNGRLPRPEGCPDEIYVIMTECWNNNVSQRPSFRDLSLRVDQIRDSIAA

Question: With `Cc1cc(C)c(C=C2C(=O)Nc3ccccc32)[nH]1` [3-(3,5-dimethyl-1H-pyrrol-2-ylmethylene)-1,3-dihydro-indol-2-one] as the compound, how does the “Level of antigen-specific IL-2 production of spleen cells” value ([1]; 50 mg/kg i.p. daily for 10 days) read?
Answer: inhibit expression

Question: What about the “Level of antigen-specific IL-6 production of spleen cells” value [2] of the same compound?
Answer: inhibit expression

Question: What about the “Level of antigen-specific IFN-γ production of spleen cells” value [3] of the same compound?
Answer: inhibit expression

Question: And the “Level of antigen-specific IL-17 production of spleen cells” value [4]?
Answer: inhibit expression

Question: Which “Inhibition of IL-12 induced tyrosine phosphorylation and activation of JAK-2 kinase” value [5] does the source give for `N#C/C(=C\c1ccc(O)c(O)c1)C(=O)NCc1ccccc1` [tyrphostin B42] here?
Answer: inhibit

Question: What about the “Inhibition of lymphocyte adhesion to inflamed vessels” value [6] of the same compound?
Answer: effective inhibitor

Question: With `C[C@@H]1C[C@H]2[C@@H]3CCC4=CC(=O)C=C[C@]4(C)[C@@]3(F)[C@@H](O)C[C@]2(C)[C@@]1(O)C(=O)CO` [Dexamethasone, dexamethasone, reference compound] as the compound, how does the “AUC (mean) of the disease score” value [7, 10] read?
Answer: 4.3

Question: And the “inhibition (%)” value [7, 10]?
Answer: 75%

Question: What about the “AUC (mean) of the disease score” value [7, 11] of the same compound?
Answer: 11.8

Question: And the “inhibition (%)” value [7, 11]?
Answer: 54%

Question: What about the “AUC (mean) of the disease score” value [7, 12] of the same compound?
Answer: 0.8

Question: And the “inhibition (%)” value [7, 12]?
Answer: 98%

Question: What about the “AUC (mean) of the disease score” value [7, 13] of the same compound?
Answer: 13.15

Question: What about the “inhibition (%)” value [7, 13] of the same compound?
Answer: 54%

Question: What about the “AUC (mean) of the disease score” value [7, 14] of the same compound?
Answer: 8.85

Question: And the “inhibition (%)” value [7, 14]?
Answer: 79%

Question: And the “AUC (mean) of the disease score” value [8, 15]?
Answer: 0.00

Question: And the “inhibition (%)” value [8, 15]?
Answer: 100%

Question: For `O=C1Nc2ccccc2C1=Cc1c[nH]c2ccccc12` (racemic) [Compound 57, 3-(1H-indol-3-ylmethylene)-1,3-dihydro-indol-2-one], which “Inhibition of EAE compared with the suspension vehicle group (in words)” value [7] is on record?
Answer: clear and significant inhibition

Question: What about the “AUC (mean) of the disease score” value [7, 16] of the same compound?
Answer: 4.70

Question: And the “inhibition (%)” value [7, 16]?
Answer: 84%

Question: What about the “Inhibition (%) of EAE (area-under-curve of the disease score)” value ([7]; Table 7, 50 mg/kg p.o., suspension vehicle) of the same compound?
Answer: 32%

Question: And the “Level of antigen-specific IL-2 production of spleen cells” value ([1]; 50 mg/kg i.p. daily for 10 days, listed as 3-(1H-indol-3-ylmethylene)-1,3-dihydro-indol-2-one)?
Answer: inhibit expression

Question: And the “Level of antigen-specific IL-2 production of spleen cells” value ([1]; 50 mg/kg i.p. daily for 10 days, listed as compound 57)?
Answer: clearly reduced

Question: And the “Level of antigen-specific IL-6 production of spleen cells” value [2, 17]?
Answer: inhibit expression

Question: And the “Level of antigen-specific IL-6 production of spleen cells” value ([2]; listed as compound 57)?
Answer: clearly reduced

Question: What about the “Level of antigen-specific IFN-γ production of spleen cells” value [3, 17] of the same compound?
Answer: inhibit expression

Question: What about the “Level of antigen-specific IFN-γ production of spleen cells” value ([3]; listed as compound 57) of the same compound?
Answer: clearly reduced

Question: And the “Level of antigen-specific IL-17 production of spleen cells” value [4, 17]?
Answer: inhibit expression

Question: What about the “Level of antigen-specific IL-17 production of spleen cells” value ([4]; listed as compound 57) of the same compound?
Answer: clearly reduced

Question: Which “AUC (mean) of the disease score” value [7, 18] does the source give for `Cc1cc(C)c(C=C2C(=O)Nc3ccccc32)[nH]1` [Compound 226, 3-(3,5-dimethyl-1H-pyrrol-2-ylmethylene)-1,3-dihydro-indol-2-one] here?
Answer: 1.8

Question: And the “inhibition (%)” value [7, 18]?
Answer: 90%

Question: What about the “AUC (mean) of the disease score” value [7, 19] of the same compound?
Answer: 21.2

Question: What about the “inhibition (%)” value [7, 19] of the same compound?
Answer: 17%

Question: And the “AUC (mean) of the disease score” value [7, 20]?
Answer: 19.6

Question: And the “inhibition (%)” value [7, 20]?
Answer: 23%

Question: And the “AUC (mean) of the disease score” value [7, 21]?
Answer: 4.6

Question: What about the “inhibition (%)” value [7, 21] of the same compound?
Answer: 82%

Question: And the “AUC (mean) of the disease score” value [7, 22]?
Answer: 0.6

Question: What about the “inhibition (%)” value [7, 22] of the same compound?
Answer: 98%

Question: And the “AUC (mean) of the disease score” value [7, 23]?
Answer: 11.9

Question: What about the “inhibition (%)” value [7, 23] of the same compound?
Answer: 70%

Question: And the “AUC (mean) of the disease score” value [7, 24]?
Answer: 6.6

Question: And the “inhibition (%)” value [7, 24]?
Answer: 83%

Question: What about the “AUC (mean) of the disease score” value [7, 25] of the same compound?
Answer: 21.9

Question: What about the “inhibition (%)” value [7, 25] of the same compound?
Answer: 65%

Question: What about the “Inhibition of EAE compared with the suspension vehicle group (in words)” value [7] of the same compound?
Answer: significantly inhibit

Question: What about the “Effect on development of EAE in prolonged experiments (in words)” value ([7]; experiments 3 and 4, prolonged with one and two weeks) of the same compound?
Answer: delays development of EAE rather than prevents the disease

Question: And the “Effect on disease development (in words)” value ([8]; MOG35-55, 50 mg/kg i.p.)?
Answer: significant effect on disease development

Question: And the “AUC (mean) of the disease score” value [8, 26]?
Answer: 2.65

Question: What about the “inhibition (%)” value [8, 26] of the same compound?
Answer: 83%

Question: And the “IL-2 production of restimulated spleen cells after in vivo dosing” value ([1]; 50 mg/kg i.p. daily for 10 days, spleen cells day 10, PLP139-153, 3 days culture)?
Answer: markedly inhibited

Question: And the “IL-2 production of cells from suspension vehicle treated mice on in vitro incubation with compound” value ([1]; 10^−7 M in vitro for 3 days)?
Answer: did not inhibit

Question: And the “Level of antigen-specific IL-2 production of spleen cells” value ([1]; 50 mg/kg i.p. daily for 10 days, listed as compound 226)?
Answer: clearly reduced

Question: And the “Level of antigen-specific IL-6 production of spleen cells” value ([2]; listed as compound 226)?
Answer: clearly reduced

Question: What about the “Level of antigen-specific IFN-γ production of spleen cells” value ([3]; listed as compound 226) of the same compound?
Answer: clearly reduced

Question: What about the “Level of antigen-specific IL-17 production of spleen cells” value ([4]; listed as compound 226) of the same compound?
Answer: clearly reduced

Question: What about the “Genes on the Atlas MicroArray differentially expressed, treated vs control mice” value ([9]; day 7, daily dosing from day 0) of the same compound?
Answer: Approximately 1.5%

Question: What about the “Expression of genes encoding adhesion molecules (lymphocyte antigens 6 locus D, 6 locus E, 84)” value ([9]; day 7, treated vs control mice) of the same compound?
Answer: upregulated

Question: And the “Expression of genes encoding interleukin 1 receptor, interleukin 10 receptor alpha, TNF receptor and TNF receptor-associated factor 1” value ([9]; day 7, treated vs control mice)?
Answer: downregulated
